Holding throughout (assay): growth of human tumour cells (NCI), 48 h
The subject of experiment [1] is HCT-116.
For experiment [2], the system named is SN12C.
Experiment [3] concerns HOP-62.
For experiment [4], the system named is SF-268.
Experiment [5] relates to SR.
Experiment [6] deals with OVCAR-8.
The test system of experiment [7] is OVCAR-3.
Experiment [8] concerns SNB-19.
Experiment [9] has as its system NCI-H522.
Experiment [10] concerns TK-10.
Experiment [11] concerns 786-0.
For experiment [12], the system named is SK-MEL-28.
Experiment [13] has as its system HOP-92.
For experiment [14], the system named is EKVX.
Experiment [15] deals with KM12.
The test system of experiment [16] is CAKI-1.
For experiment [17], the system named is RPMI-8226.
Experiment [18] relates to A549.
Experiment [19] has as its system SF-295.
In experiment [20] the test system is SNB-75.

The structures appear in SMILES notation.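 All cell lines were grown in 96-well plates and treated with compound for 48 hours. GI50: concentration for 50% inhibition of growth.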 The source made the active and inactive calls. No stated cut-off is given here; in the data, active = GI50 up to about 1.1 µM and inactive = higher.

Take `C=CCSc1nnc2cc(CN3CCCC3)c(-c3ccc(Cl)cc3)nn12`: the GI50 is 14.5 µM (inactive) in experiment [1]; 16.8 µM (inactive) in experiment [2]; 20.7 µM (inactive) in [3]; 20.8 µM (inactive) in [4]; 32.6 µM (inactive) in experiment [5]; 23.3 µM (inactive) in experiment [6]. Further, the GI50 in experiment [7] was 17.1 µM (inactive); in [8], 24.6 µM (inactive); in experiment [9], 18.9 µM (inactive); in experiment [10], 20.7 µM (inactive); in experiment [11] it was 17.1 µM (inactive); in experiment [12] it was 20 µM (inactive). In addition, the GI50 was 16.1 µM (inactive) in [13]; 19 µM (inactive) in [14]; 24.8 µM (inactive) in [15]; 26.5 µM (inactive) in experiment [16]; 39.1 µM (inactive) in experiment [17]; 28.1 µM (inactive) in [18]. Moreover, the figures for the GI50 in experiment [19] and in experiment [20] were 22.2 µM (inactive) and 19.9 µM (inactive), respectively.
In the case of `COc1ccc(N2C(=O)C3c4[nH]c5c(C)cccc5c4C4CCC(C(C)C)CC4C3C2=O)cc1` (stereo not given), the GI50 is 9.73 µM (inactive) in experiment [1]; 8.3 µM (inactive) in experiment [2]; 10 µM (inactive) in experiment [3]; 6.01 µM (inactive) in experiment [4]; 4.68 µM (inactive) in experiment [5]; 12.1 µM (inactive) in [6]. In addition, the GI50 in experiment [7] was 13.9 µM (inactive); in experiment [8], 22.1 µM (inactive); in experiment [9] it was 4.51 µM (inactive); in [10] it was 24.4 µM (inactive); in experiment [11], 4.38 µM (inactive); in [12], 13 µM (inactive). Moreover, the GI50 in experiment [13] was 12.1 µM (inactive); in [14] it was 16.7 µM (inactive); in [15], 6.75 µM (inactive); in experiment [16], 15 µM (inactive); in [17], 1.88 µM (inactive); in experiment [18], 5.41 µM (inactive). The GI50 in experiment [19] was 14.7 µM (inactive); in experiment [20], 4.06 µM (inactive).
With `CN(NC(=O)/C(=C/c1ccc(Cl)cc1)NC(=O)c1ccccc1)c1cn[nH]c(=O)c1Cl`, the GI50 in experiment [1] was > 100 µM (inactive); in [2], > 100 µM (inactive); in experiment [3] it was 47 µM (inactive); in experiment [4], > 100 µM (inactive); in experiment [5], > 100 µM (inactive); in experiment [6], 46.9 µM (inactive). The GI50 is 87.1 µM (inactive) in [7]; > 100 µM (inactive) in experiment [8]; 17.5 µM (inactive) in experiment [9]; > 100 µM (inactive) in [10]; > 100 µM (inactive) in experiment [11]; > 100 µM (inactive) in [12]. The GI50 in experiment [13] is > 100 µM (inactive); in [14], 68.5 µM (inactive); in experiment [15], 55.1 µM (inactive); in [16], > 100 µM (inactive); in experiment [17] it was 17.4 µM (inactive); in experiment [18], > 100 µM (inactive). Besides, the values for the GI50 in experiment [19] and in experiment [20] were 46.6 µM (inactive) and 59 µM (inactive), respectively.
For the molecule `C/C(=N\NC(=O)c1ccncc1)c1ccc2ccccc2c1O`, the GI50 in experiment [1] was 0.608 µM (active); in experiment [2], 1.62 µM (inactive); in experiment [3], 4.37 µM (inactive); in [4], 0.802 µM (active); in experiment [5] it was 0.303 µM (active); in experiment [6], 2.18 µM (inactive). Besides, the GI50 was 0.29 µM (active) in experiment [7]; 17.5 µM (inactive) in experiment [8]; 0.869 µM (active) in experiment [9]; 4.63 µM (inactive) in [10]; 0.548 µM (active) in experiment [11]; 17.2 µM (inactive) in [12]. Moreover, the GI50 in [13] is 8.28 µM (inactive); in experiment [14], 0.832 µM (active); in experiment [15], 2.31 µM (inactive); in experiment [16] it was 2.25 µM (inactive); in experiment [17] it was 4.33 µM (inactive); in experiment [18] it was 1.77 µM (inactive). Also, the GI50 in experiment [19] was 1.77 µM (inactive); in [20] it was 3.66 µM (inactive).
In the case of `O=C1/C(=c2\c3ccccc3n3c(=O)c4ccccc4nc23)Nc2ccccc21` [CANDIDINE], the GI50 in [1] was > 100 µM (inactive); in [2], > 100 µM (inactive); in [3] it was > 70.5 µM (inactive); in experiment [4] it was 85.3 µM (inactive); in experiment [5], > 89.5 µM (inactive); in experiment [6], > 91.8 µM (inactive). For the same molecule, the GI50 was 45.9 µM (inactive) in experiment [7]; > 100 µM (inactive) in experiment [8]; > 100 µM (inactive) in experiment [9]; > 100 µM (inactive) in experiment [10]; 58.7 µM (inactive) in experiment [11]; > 100 µM (inactive) in [12]. Further, the GI50 in [13] is > 75.7 µM (inactive); in experiment [14], > 88.9 µM (inactive); in experiment [15], > 59.7 µM (inactive); in [16], > 100 µM (inactive); in experiment [17] it was > 100 µM (inactive); in experiment [18], > 84.5 µM (inactive). The GI50 was > 78.3 µM (inactive) in experiment [19] and 25.6 µM (inactive) in [20].
On to `Cc1nc2ccc(S(=O)(=O)NS(=O)(=O)c3ccc(-c4ccccc4)cc3)cc2c(=O)n1NS(=O)(=O)c1ccc(-c2ccccc2)cc1`, for which the GI50 was > 100 µM (inactive) in experiment [1]; > 100 µM (inactive) in experiment [2]; > 100 µM (inactive) in experiment [3]; > 100 µM (inactive) in experiment [4]; > 100 µM (inactive) in [5]; 77.4 µM (inactive) in experiment [6]. The GI50 in experiment [7], in experiment [8], in [9], in [10], in experiment [11] and in experiment [12] was > 100 µM (inactive) in each case. Also, the GI50 is 23.4 µM (inactive) in experiment [13]; 68.2 µM (inactive) in experiment [14]; > 100 µM (inactive) in [15]; > 100 µM (inactive) in [16]; > 100 µM (inactive) in [17]; > 100 µM (inactive) in experiment [18]. Moreover, the GI50 in experiment [19] and in [20] was > 100 µM (inactive) each time.
Regarding `O=C(CCN1CCN2c3ccccc3CCC2C1)c1ccc(F)cc1` (stereo not given), the GI50 was 37.5 µM (inactive) in [1]; 48.6 µM (inactive) in experiment [2]; 23.8 µM (inactive) in experiment [3]; 46.9 µM (inactive) in experiment [4]; 28.4 µM (inactive) in [5]; 41.5 µM (inactive) in experiment [6]. In addition, the GI50 in experiment [7] is 32.1 µM (inactive); in experiment [8] it was 23.2 µM (inactive); in [9], 15.4 µM (inactive); in experiment [10], 29.6 µM (inactive); in experiment [11] it was 18.9 µM (inactive); in [12], 14.7 µM (inactive). Besides, the GI50 was 33.9 µM (inactive) in experiment [13]; 27.5 µM (inactive) in [14]; 41.1 µM (inactive) in experiment [15]; 23.3 µM (inactive) in experiment [16]; 28.9 µM (inactive) in experiment [17]; > 100 µM (inactive) in [18]. Moreover, the GI50 in [19] was > 100 µM (inactive); in experiment [20] it was 27.2 µM (inactive).
With `Cc1cc2c(cc1C(=O)CCC(=O)O)CC1(C2)Cc2cc(C)c(C(=O)CCC(=O)O)cc2C1`, the GI50 in experiment [1], in experiment [2], in experiment [3], in experiment [4], in experiment [5] and in experiment [6] was > 100 µM (inactive) each time. Moreover, the GI50 in experiment [7], in experiment [8], in experiment [9], in [10], in experiment [11] and in experiment [12] was > 100 µM (inactive) each time. For the same molecule, the GI50 in experiment [13], in experiment [14], in experiment [15], in [16], in experiment [17] and in experiment [18] was > 100 µM (inactive) in each case. Besides, the GI50 was > 100 µM (inactive) in [19] and 90.6 µM (inactive) in [20].
On to `CC1=C(C(=O)Nc2ccc(Cl)c(Cl)c2)C(c2ccc([N+](=O)[O-])cc2)C(C(=O)Nc2ccc(Cl)c(Cl)c2)=C(C)N1`, for which the GI50 in experiment [1] is 1.55 µM (inactive); in [2] it was 2.34 µM (inactive); in experiment [3], 2.54 µM (inactive); in [4] it was 3.38 µM (inactive); in experiment [5], 0.179 µM (active); in [6], 2.13 µM (inactive). Besides, the GI50 in [7] was 1.66 µM (inactive); in experiment [8], 4.65 µM (inactive); in experiment [9], 2.55 µM (inactive); in [10] it was 7.18 µM (inactive); in experiment [11], 2.81 µM (inactive); in experiment [12] it was 2.44 µM (inactive). Moreover, the GI50 was 2.4 µM (inactive) in experiment [13]; 3.13 µM (inactive) in experiment [14]; 1.82 µM (inactive) in [15]; 2.54 µM (inactive) in experiment [16]; 1.45 µM (inactive) in experiment [17]; 2.82 µM (inactive) in experiment [18]. The GI50 in experiment [19] was 2.7 µM (inactive); in [20], 3.84 µM (inactive).
For the molecule `COC(=O)NNc1c([N+](=O)[O-])cnn(-c2ccccc2)c1=O`, the GI50 in experiment [1] was 1.78 µM (inactive); in [2] it was 1.99 µM (inactive); in [3], 7.21 µM (inactive); in experiment [4], 3.1 µM (inactive); in experiment [5], 0.497 µM (active); in [6] it was 1.78 µM (inactive). In addition, the GI50 was 1.97 µM (inactive) in experiment [7]; 10.5 µM (inactive) in [8]; 0.995 µM (active) in experiment [9]; 18.1 µM (inactive) in experiment [10]; 3.32 µM (inactive) in [11]; 3.83 µM (inactive) in experiment [12]. Besides, the GI50 in experiment [13] was 2.18 µM (inactive); in [14] it was 3.82 µM (inactive); in [15] it was 5.19 µM (inactive); in experiment [16] it was 3.98 µM (inactive); in experiment [17] it was 2.44 µM (inactive); in experiment [18], 12.4 µM (inactive). Also, the GI50 in experiment [19] is 3.46 µM (inactive); in experiment [20], 7.48 µM (inactive).
